Activity calls are given as the source filed them. The rule behind the calls is not given here.
System: rodent lifetime carcinogenesis bioassay, tumor incidence TD50
Assay: carcinogenic potency in animals, long-term in vivo studies, CPDB compilation (AID 1745844)

`COc1cc(-c2ccc(N=C=O)c(OC)c2)ccc1N=C=O` was tested, and the TD50 (mouse, strain B6C3F1, females, in feed, site: any site (literature study), lesion: several types, types named in the paper, dosed 78 weeks, study length 103 weeks) was 32800 mg/kg/day (inactive), the TD50 (mouse, strain B6C3F1, males, in feed, site: any site (literature study), lesion: several types, types named in the paper, dosed 78 weeks, study length 103 weeks) was 24000 mg/kg/day (inactive) and the TD50 (mouse, strain B6C3F1, males, in feed, site: liver, lesion: hepatocellular adenoma + hepatocellular carcinoma + neoplastic nodule, dosed 78 weeks, study length 103 weeks) was 12100 mg/kg/day. It also gave a TD50 (mouse, strain B6C3F1, males, in feed, site: lung, lesion: alveolar/bronchiolar adenoma + alveolar/bronchiolar carcinoma, dosed 78 weeks, study length 103 weeks) of 87900 mg/kg/day, a TD50 (rat, strain Fischer 344, females, oral dosing, site: all sites + uterus, lesion: leukemia + lymphoma + endometrial stromal polyp, dosed 78 weeks, study length 104 weeks) of 1450 mg/kg/day and a TD50 (rat, strain Fischer 344, females, oral dosing, site: all sites, lesion: leukemia + lymphoma, dosed 78 weeks, study length 104 weeks) of 2280 mg/kg/day. It also gave a TD50 (rat, strain Fischer 344, females, oral dosing, site: any site (literature study), lesion: several types, types named in the paper, dosed 78 weeks, study length 104 weeks) of 773 mg/kg/day, a TD50 (rat, strain Fischer 344, females, oral dosing, site: ear + Zymbal's gland, lesion: sebaceous adenocarcinoma + squamous-cell carcinoma + trichoepithelioma, dosed 78 weeks, study length 104 weeks) of 2590 mg/kg/day and a TD50 (rat, strain Fischer 344, females, oral dosing, site: liver, lesion: hepatocellular adenoma + hepatocellular carcinoma + neoplastic nodule, dosed 78 weeks, study length 104 weeks) of 17100 mg/kg/day. The TD50 (rat, strain Fischer 344, females, oral dosing, site: uterus, lesion: endometrial stromal polyp, dosed 78 weeks, study length 104 weeks) was 2740 mg/kg/day, the TD50 (rat, strain Fischer 344, males, oral dosing, site: all sites + skin of foot and toe + skin of back + skin of flank + skin, lesion: leukemia + lymphoma + keratoacanthoma + basal-cell tumor + papilloma, NOS + sebaceous adenoma + sebaceous adenoma and adenocarcinoma, dosed 78 weeks, study length 104 weeks) was 742 mg/kg/day and the TD50 (rat, strain Fischer 344, males, oral dosing, site: all sites, lesion: leukemia + lymphoma, dosed 78 weeks, study length 104 weeks) was 1270 mg/kg/day. The TD50 (rat, strain Fischer 344, males, oral dosing, site: any site (literature study), lesion: several types, types named in the paper, dosed 78 weeks, study length 104 weeks) was 809 mg/kg/day, the TD50 (rat, strain Fischer 344, males, oral dosing, site: ear + Zymbal's gland, lesion: squamous-cell carcinoma, dosed 78 weeks, study length 104 weeks) was 7010 mg/kg/day and the TD50 (rat, strain Fischer 344, males, oral dosing, site: liver, lesion: hepatocellular adenoma + hepatocellular carcinoma + neoplastic nodule, dosed 78 weeks, study length 104 weeks) was 6600 mg/kg/day. The TD50 (rat, strain Fischer 344, males, oral dosing, site: skin of foot and toe + skin of back + skin of flank + skin, lesion: keratoacanthoma + basal-cell tumor + papilloma, NOS + sebaceous adenoma + trichoepithelioma, dosed 78 weeks, study length 104 weeks) was 1770 mg/kg/day and the TD50 (rat, strain Fischer 344, males, oral dosing, site: skin of foot and toe + skin of back + skin of flank + skin, lesion: keratoacanthoma + basal-cell tumor + papilloma, NOS + sebaceous adenoma and adenocarcinoma + squamous-cell carcinoma + trichoepith, dosed 78 weeks, study length 104 weeks) was 1330 mg/kg/day.
`CC(=O)O[C@]1(C(C)=O)CC[C@H]2[C@@H]3C=C(Cl)C4=CC(=O)CC[C@]4(C)[C@H]3CC[C@@]21C` showed a TD50 (mouse, strain C3H (MTV+), females, in feed, site: mammary tissue, wider than the gland, lesion: one or several types, types not named, dosed 104 weeks, study length 104 weeks) of 3.77 mg/kg/day.
For `COc1cc(N)ccc1N=Nc1ccccc1`, the carcinogen call (mouse, strain B6C3F1, females, in feed, site: liver, lesion: one or several types, types not named, dosed 56 weeks, study length 56 weeks) was “negative (inactive)” and the carcinogen call (mouse, strain B6C3F1, males, in feed, site: liver, lesion: one or several types, types not named, dosed 56 weeks, study length 56 weeks) was “negative (inactive)”.
`[O]=[Mo](=[O])=[O]` showed a TD50 (mouse, strain B6C3F1, females, inhaled, site: liver, lesion: hepatocellular adenoma + hepatoblastoma + hepatocellular carcinoma, dosed 105 weeks, study length 105 weeks) of 4450 mg/kg/day, a TD50 (mouse, strain B6C3F1, females, inhaled, site: lung, lesion: alveolar/bronchiolar adenoma + alveolar/bronchiolar carcinoma, dosed 105 weeks, study length 105 weeks) of 68.3 mg/kg/day and a TD50 (mouse, strain B6C3F1, females, inhaled, site: lung, lesion: alveolar/bronchiolar adenoma, dosed 105 weeks, study length 105 weeks) of 97.8 mg/kg/day. The TD50 (mouse, strain B6C3F1, females, inhaled, site: subcutaneous tissue, lesion: sarcoma, dosed 105 weeks, study length 105 weeks) was 162 mg/kg/day, the TD50 (mouse, strain B6C3F1, males, inhaled, site: liver, lesion: hepatocellular adenoma + hepatoblastoma + hepatocellular carcinoma, dosed 105 weeks, study length 105 weeks) was 11.7 mg/kg/day and the TD50 (mouse, strain B6C3F1, males, inhaled, site: liver, lesion: hepatocellular carcinoma, dosed 105 weeks, study length 105 weeks) was 14.8 mg/kg/day. For the same compound, the TD50 (mouse, strain B6C3F1, males, inhaled, site: lung, lesion: alveolar/bronchiolar adenoma + alveolar/bronchiolar carcinoma, dosed 105 weeks, study length 105 weeks) was 3.21 mg/kg/day, the TD50 (mouse, strain B6C3F1, males, inhaled, site: lung, lesion: alveolar/bronchiolar carcinoma, dosed 105 weeks, study length 105 weeks) was 4.15 mg/kg/day and the TD50 (rat, strain Fischer 344, females, inhaled, site: any site (literature study), lesion: several types, types named in the paper, dosed 105 weeks, study length 105 weeks) was 14 mg/kg/day. The TD50 (rat, strain Fischer 344, females, inhaled, site: clitoral gland, lesion: adenoma + carcinoma, dosed 105 weeks, study length 105 weeks) was 5.04 mg/kg/day, the TD50 (rat, strain Fischer 344, females, inhaled, site: mammary gland, lesion: adenoma + fibroadenoma, dosed 105 weeks, study length 105 weeks) was 0.77 mg/kg/day (inactive) and the TD50 (rat, strain Fischer 344, males, inhaled, site: liver, lesion: hepatocellular adenoma + hepatoblastoma + hepatocellular carcinoma, dosed 105 weeks, study length 105 weeks) was 128 mg/kg/day. For the same compound, the TD50 (rat, strain Fischer 344, males, inhaled, site: lung, lesion: alveolar/bronchiolar adenoma + alveolar/bronchiolar carcinoma, dosed 105 weeks, study length 105 weeks) was 21.8 mg/kg/day and the TD50 (rat, strain Fischer 344, males, inhaled, site: lung, lesion: alveolar/bronchiolar adenoma, dosed 105 weeks, study length 105 weeks) was 31.6 mg/kg/day.
For `N#[N+]c1ccccc1`, the TD50 (hamster, strain Syrian Golden, females, by gavage, site: liver, lesion: Kupffer-cell sarcoma, dosed 90 weeks, study length 90 weeks) was 66.1 mg/kg/day (inactive), the TD50 (hamster, strain Syrian Golden, females, by gavage, site: liver, lesion: cholangioma, dosed 90 weeks, study length 90 weeks) was 293 mg/kg/day (inactive) and the TD50 (hamster, strain Syrian Golden, females, by gavage, site: liver, lesion: hemangioma, dosed 90 weeks, study length 90 weeks) was 66.1 mg/kg/day (inactive). The TD50 (hamster, strain Syrian Golden, males, by gavage, site: liver, lesion: hemangioma, dosed 90 weeks, study length 90 weeks) was 293 mg/kg/day (inactive), the TD50 (mouse, strain Swiss albino, females, by gavage, site: lung, lesion: adenocarcinoma, dosed 52 weeks, study length 141 weeks) was 39.4 mg/kg/day and the TD50 (mouse, strain Swiss albino, females, by gavage, site: lung, lesion: adenoma, dosed 52 weeks, study length 141 weeks) was 27.1 mg/kg/day. The TD50 (mouse, strain Swiss albino, females, by gavage, site: lung, lesion: several types, types named in the paper, dosed 52 weeks, study length 141 weeks) was 16.5 mg/kg/day, the TD50 (mouse, strain Swiss albino, males, by gavage, site: lung, lesion: adenoma, dosed 52 weeks, study length 129 weeks) was 14.8 mg/kg/day and the TD50 (mouse, strain Swiss albino, males, by gavage, site: lung, lesion: several types, types named in the paper, dosed 52 weeks, study length 129 weeks) was 12.7 mg/kg/day.
Compound `c1ccc2ccccc2c1` has a TD50 (mouse, strain B6C3F1, females, inhaled, site: any site (literature study), lesion: several types, types named in the paper, dosed 103 weeks, study length 104 weeks) of 128 mg/kg/day, a TD50 (mouse, strain B6C3F1, females, inhaled, site: lung, lesion: alveolar/bronchiolar adenoma + alveolar/bronchiolar carcinoma, dosed 103 weeks, study length 104 weeks) of 163 mg/kg/day and a TD50 (mouse, strain B6C3F1, females, inhaled, site: lung, lesion: alveolar/bronchiolar adenoma, dosed 103 weeks, study length 104 weeks) of 171 mg/kg/day. For the same compound, the TD50 (mouse, strain B6C3F1, females, inhaled, site: lung, lesion: alveolar/bronchiolar carcinoma, dosed 103 weeks, study length 104 weeks) was 4020 mg/kg/day, the carcinogen call (mouse, strain B6C3F1, males, inhaled, site: any site (literature study), lesion: several types, types named in the paper, dosed 103 weeks, study length 104 weeks) was “negative (inactive)” and the TD50 (rat, strain Fischer 344, females, inhaled, site: nasal cavity, olfactory epithelium + nasal cavity, respiratory epithelium, lesion: neuroblastoma + adenoma, dosed 105 weeks, study length 105 weeks) was 37.3 mg/kg/day. It also gave a TD50 (rat, strain Fischer 344, females, inhaled, site: nasal cavity, olfactory epithelium, lesion: neuroblastoma, dosed 105 weeks, study length 105 weeks) of 52.9 mg/kg/day, a TD50 (rat, strain Fischer 344, females, inhaled, site: nasal cavity, respiratory epithelium, lesion: adenoma, dosed 105 weeks, study length 105 weeks) of 121 mg/kg/day and a TD50 (rat, strain Fischer 344, males, inhaled, site: any site (literature study), lesion: several types, types named in the paper, dosed 104 weeks, study length 104 weeks) of 27.5 mg/kg/day. It also gave a TD50 (rat, strain Fischer 344, males, inhaled, site: liver, lesion: hepatocellular adenoma + hepatoblastoma + hepatocellular carcinoma, dosed 104 weeks, study length 104 weeks) of 171 mg/kg/day, a TD50 (rat, strain Fischer 344, males, inhaled, site: mammary gland, lesion: fibroadenoma, dosed 104 weeks, study length 104 weeks) of 133 mg/kg/day and a TD50 (rat, strain Fischer 344, males, inhaled, site: nasal cavity, olfactory epithelium + nasal cavity, respiratory epithelium, lesion: neuroblastoma + adenoma, dosed 104 weeks, study length 104 weeks) of 12.3 mg/kg/day. The TD50 (rat, strain Fischer 344, males, inhaled, site: nasal cavity, olfactory epithelium, lesion: neuroblastoma, dosed 104 weeks, study length 104 weeks) was 88 mg/kg/day and the TD50 (rat, strain Fischer 344, males, inhaled, site: nasal cavity, respiratory epithelium, lesion: adenoma, dosed 104 weeks, study length 104 weeks) was 14 mg/kg/day.
